Assay results: PubChem BioAssay AID1919017 (Molecular Pharmacology Branch, DTP, NCI, 2023)

Tested on: SW1271 complex spheroids with HUVEC/MSC, growth, % test/control
Assay: Anticancer human tumor SW1271 cell line growth inhibition [AhR];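 note: spheroids exposed to agents for 7 days before readout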
Conditions: for IC50: curve of first compound; for viability, T/C: stronger effect = lower value
Method in brief: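 Agents were dosed in half-log steps down from roughly clinical Cmax, or from 10 microM where Cmax was unknown, alone and with AhR antagonists. Read-out: percent test/control growth of tumor spheroids containing HUVEC and MSC stromal cells.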

[1] = second compound 0.1 µM, first compound 0.000949 µM
[2] = second compound 0.1 µM, first compound 0.003 µM
[3] = second compound 0.1 µM, first compound 0.00949 µM
[4] = second compound 0.1 µM, first compound 0.03 µM
[5] = second compound 0.1 µM, first compound 0.0949 µM
[6] = second compound 0.1 µM, first compound 0.3 µM
[7] = second compound 0.316 µM, first compound 0.000949 µM
[8] = second compound 0.316 µM, first compound 0.003 µM
[9] = second compound 0.316 µM, first compound 0.00949 µM
[10] = second compound 0.316 µM, first compound 0.03 µM
[11] = second compound 0.316 µM, first compound 0.0949 µM
[12] = second compound 0.316 µM, first compound 0.3 µM
[13] = second compound 1 µM, first compound 0.000949 µM
[14] = second compound 1 µM, first compound 0.003 µM
[15] = second compound 1 µM, first compound 0.00949 µM
[16] = second compound 1 µM, first compound 0.03 µM
[17] = second compound 1 µM, first compound 0.0949 µM
[18] = second compound 1 µM, first compound 0.3 µM
[19] = second compound 3.16 µM, first compound 0.000949 µM
[20] = second compound 3.16 µM, first compound 0.003 µM
[21] = second compound 3.16 µM, first compound 0.00949 µM
[22] = second compound 3.16 µM, first compound 0.03 µM
[23] = second compound 3.16 µM, first compound 0.0949 µM
[24] = second compound 3.16 µM, first compound 0.3 µM
[25] = second compound 10 µM, first compound 0.000949 µM
[26] = second compound 10 µM, first compound 0.003 µM
[27] = second compound 10 µM, first compound 0.00949 µM
[28] = second compound 10 µM, first compound 0.03 µM
[29] = second compound 10 µM, first compound 0.0949 µM
[30] = second compound 10 µM, first compound 0.3 µM

With `CC(C)CC(NC(=O)C(Cc1ccccc1)NC(=O)c1cnccn1)B(O)O` (stereo not given) + Cc1ccccc1N=Nc1ccc(NC(=O)c2ccnn2C)c(C)c1 the IC50 (second compound 0.1 µM) was 5.48 nM, the IC50 (second compound 0.316 µM) was 5.4 nM and the IC50 (second compound 1 µM) was 5.73 nM. It also gave an IC50 (second compound 3.16 µM) of 5.73 nM, an IC50 (second compound 10 µM) of 6.76 nM and a viability, T/C [1] of 105%. It also gave a viability, T/C [2] of 97%, a viability, T/C [3] of 7.2% and a viability, T/C [4] of 1.26%. The viability, T/C [5] was 0.41%, the viability, T/C [6] was 0.31% and the viability, T/C [7] was 91.4%. The viability, T/C [8] was 90.3%, the viability, T/C [9] was 11.3% and the viability, T/C [10] was 0.73%. It also gave a viability, T/C [11] of 11.2%, a viability, T/C [12] of 6.11% and a viability, T/C [13] of 123%. The viability, T/C [14] was 101%, the viability, T/C [15] was 10.2% and the viability, T/C [16] was 1.95%. The viability, T/C [17] was 1.1%, the viability, T/C [18] was 0.56% and the viability, T/C [19] was 92.9%. It also gave a viability, T/C [20] of 89.4%, a viability, T/C [21] of 19.4% and a viability, T/C [22] of 1.27%. It also gave a viability, T/C [23] of 0.6%, a viability, T/C [24] of 0.68% and a viability, T/C [25] of 93.1%. The viability, T/C [26] was 99.5%, the viability, T/C [27] was 30.8% and the viability, T/C [28] was 2.17%. It also gave a viability, T/C [29] of 0.87% and a viability, T/C [30] of 0.59%.
In the case of `CCc1c2c(nc3ccc(O)cc13)-c1cc3c(c(=O)n1C2)COC(=O)[C@]3(O)CC` + Cc1ccccc1N=Nc1ccc(NC(=O)c2ccnn2C)c(C)c1, the IC50 (second compound 0.1 µM) is reported as 300 nM, the IC50 (second compound 0.316 µM) is reported as 67.1 nM and the IC50 (second compound 1 µM) is reported as 210 nM. For the same compound, the IC50 (second compound 3.16 µM) was greater than 300 nM, the IC50 (second compound 10 µM) was 78.8 nM and the viability, T/C [1] was 72.5%. It also gave a viability, T/C [2] of 99%, a viability, T/C [3] of 64% and a viability, T/C [4] of 56.2%. The viability, T/C [5] was 47.7%, the viability, T/C [6] was 54.7% and the viability, T/C [7] was 90.9%. It also gave a viability, T/C [8] of 85.4%, a viability, T/C [9] of 72.4% and a viability, T/C [10] of 54.2%. The viability, T/C [11] was 46.4%, the viability, T/C [12] was 48.7% and the viability, T/C [13] was 81.7%. For the same compound, the viability, T/C [14] was 74.3%, the viability, T/C [15] was 72.5% and the viability, T/C [16] was 55%. For the same compound, the viability, T/C [17] was 59.6%, the viability, T/C [18] was 46.5% and the viability, T/C [19] was 79.7%. It also gave a viability, T/C [20] of 85.6%, a viability, T/C [21] of 77.1% and a viability, T/C [22] of 63.6%. It also gave a viability, T/C [23] of 54.3%, a viability, T/C [24] of 52.7% and a viability, T/C [25] of 82%. For the same compound, the viability, T/C [26] was 82.7%, the viability, T/C [27] was 83.9% and the viability, T/C [28] was 59.6%. It also gave a viability, T/C [29] of 47.5% and a viability, T/C [30] of 48.9%.
